Results as given in patent US11179391B2, “Compound with kinase inhibitory activity and preparation method and use thereof” (priority 2017, dated 2021).

Assays:
Assay type in all cases: biochemical
CDK4/CycD3 = CDK4/CycD3 (Homo sapiens, UniProt P11802); assay: Determination of CDK activity (Caliper mobility shift, FAM-P8 peptide): CDK4; conditions: CDK4/CycD3; read-out: CDK4 enzymatic inhibitory activity (IC50)
Method: (§1) In vitro, CDK (CDK4, CDK6, CDK1, CDK2, CDK7, and CDK9) kinase activity was tested by the following method.
(§2) CDK and raw materials used here: CDK4/CycD3 (Carna, Cat. No 04-105, Lot. No 10CBS-0429 C, GST-CDK4(1-303end)/GST-CycD3(1-292end)); CDK6/cycD3 (Carna, Cat. No 04-107, Lot. No 09CBS-0622K, GST-CDK6(1-326(end))); CDK1/CyclinB (Millipore, Cat. 14-450k, Lot. No 25729U, His-CDK1+GST-cyclinB); CDK2/CycA2 (Carna, Cat. No 04-103, Lot. No 06CBS-3024, GST-CDK2 (1-298(end))); CDK7/CyclinH/MAT1 (Millipore, Cat. No 14-476M, Lot. No WAB0365-A, His-CDK7+GST-MAT1+cyclinH); CDK9/cyclinTl (Millipore, Cat. No 14-685K, Lot. No. 2476163-A, His-CDK9+cyclinTl); Peptide FAM-P8 (GL Biochem, Cat. No. 112396, Lot. No. P100804-XZ112396); ATP (Sigma, Cat. No. A7699-1G, CAS No. 987-65-5); DMSO (Sigma, Cat. No. D2650, Lot. No. 474382); EDTA (Sigma, Cat. No. E5134, CAS No. 60-00-4); 96-well plate (Corning, Cat. No. 3365, Lot. No. 22008026); 384-well plate (Corning, Cat. No. 3573, Lot. No. 12608008); Staurosporine (Sigma, Cat. No. S4400-1MG, Lot. No. 046K4080).
(§3) 1. Prepared 1× Kinase Buffer and Stop Buffer for the Test
2) 1× Kinase Base Buffer (CDK4).
(§4) 1) Diluted the compound to 50 times of the maximum concentration with 100% DMSO. For example, if the desired maximum inhibitory concentration is 10 μM, then a DMSO solution of 500 μM concentration is required.
(§5) 2) Transferred the compound to a 96-well plate and serially diluted the compound from a 100% DMSO solution at a ratio of 30 μm to 60 μm for a total of 10 concentrations gradients. 3) Transferred 100 μm of 100% DMSO to two empty wells as a no compound control and a no enzyme control.
(§6) 4) Prepared intermediate plate and transferred the compound of 10 μm concentration from the original plate to the intermediate plate, and then 90 μm of 1× kinase buffer was added and mixed by shaking for 10 min.
(§7) 4) Preparing intermediate plate and transferred the compound of […] concentration from the original plate to the intermediate plate, and then 90 μm of 1× kinase buffer was added and mixed by shaking for 10 min.
(§8) 1) Transferred 5 μm of each compound from the 96-well intermediate plate to a 384-well plate. For example, A1 of the 96-well plate was transferred to A1 and A2 of the 384-well plate. A2 of the 96-well plate was transferred to A3 and A4 of the 384-well plate, and so on.
(§9) 1) Prepared a 2.5× enzyme solution: added kinase into 1× kinase base buffer.
(§10) 2) Prepared a 2.5× peptide solution: added FAM-labeled peptide and ATP into the 1× kinase base buffer.
(§11) 3) Transferred the 2.5× enzyme solution to the assay plate: Assay plate already contained 5 μm of 10% DMSO and transferred 10 μm of 2.5× enzyme solution to each well.
(§12) 4) Incubated at room temperature for 10 min.
(§13) 5) Transferred the 2.5× peptide solution to the assay plate: added 10 μm of 2.5× peptide solution to each well of the 384-well assay plate.
(§14) 6) Kinase reaction and termination: incubated at 28° C. for a specified period and added 25 μm of stop buffer to stop the reaction.
(§15) 5. Caliper Reading: Collect Data on Caliper.
(§16) 1) Copied conversion data from Caliper program and Converted conversion values to inhibition values: Inhibition rate (%)=(1−OD value of the compound-OD value of the control well)/(OD value of the control empty-OD value of the control well)*100%.
(§17) 2) Fitted the data in XLFit excel add-in version 4.3.1 to give the corresponding IC50 values.

CDK6/cycD3 = CDK6/cycD3 (Homo sapiens, UniProt Q00534); assay: Determination of CDK activity (Caliper mobility shift, FAM-P8 peptide): CDK6; conditions: CDK6/cycD3; read-out: CDK6 enzymatic inhibitory activity (IC50)
Sequence of CDK6/cycD3 (Q00534 whole entry): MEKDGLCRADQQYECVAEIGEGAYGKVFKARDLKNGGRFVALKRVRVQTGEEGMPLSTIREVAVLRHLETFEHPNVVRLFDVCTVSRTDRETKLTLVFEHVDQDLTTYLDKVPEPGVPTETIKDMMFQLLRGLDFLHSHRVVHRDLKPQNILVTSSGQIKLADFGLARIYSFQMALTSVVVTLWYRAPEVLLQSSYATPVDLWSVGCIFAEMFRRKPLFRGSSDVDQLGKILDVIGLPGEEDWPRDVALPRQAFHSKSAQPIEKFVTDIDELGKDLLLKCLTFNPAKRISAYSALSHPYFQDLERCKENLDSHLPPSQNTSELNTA
Sequence of CDK6/cycD3 (P30281 whole entry partner): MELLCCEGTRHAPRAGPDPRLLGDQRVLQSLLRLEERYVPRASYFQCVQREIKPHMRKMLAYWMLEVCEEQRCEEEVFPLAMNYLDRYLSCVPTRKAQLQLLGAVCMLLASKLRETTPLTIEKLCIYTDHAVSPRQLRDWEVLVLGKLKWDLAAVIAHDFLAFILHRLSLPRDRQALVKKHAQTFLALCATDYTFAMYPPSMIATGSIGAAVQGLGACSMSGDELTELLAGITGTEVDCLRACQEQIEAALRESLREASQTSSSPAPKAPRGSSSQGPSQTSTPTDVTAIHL
Method: as §1, §2, §3
(§18) 1) 1× Kinase Base Buffer (CDK1, 2, and 6).
as §4, §5, §6, §7, §8, §9, §10, §11, §12, §13, §14, §15, §16, §17

CDK1/CyclinB = CDK1/CyclinB (Homo sapiens, UniProt P06493); assay: Determination of CDK activity (Caliper mobility shift, FAM-P8 peptide): CDK1; conditions: CDK1/CyclinB; read-out: CDK1 enzymatic inhibitory activity (IC50)
Sequence of CDK1/CyclinB (P06493 whole entry): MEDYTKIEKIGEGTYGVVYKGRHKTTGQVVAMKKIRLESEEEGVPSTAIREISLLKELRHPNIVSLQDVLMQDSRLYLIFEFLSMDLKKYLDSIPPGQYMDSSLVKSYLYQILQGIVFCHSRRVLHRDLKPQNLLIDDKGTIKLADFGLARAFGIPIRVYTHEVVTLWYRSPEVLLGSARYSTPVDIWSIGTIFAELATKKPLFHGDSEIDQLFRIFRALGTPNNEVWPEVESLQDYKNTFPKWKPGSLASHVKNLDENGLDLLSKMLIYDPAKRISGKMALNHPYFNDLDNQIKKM
Sequence of CDK1/CyclinB (P14635 whole entry partner): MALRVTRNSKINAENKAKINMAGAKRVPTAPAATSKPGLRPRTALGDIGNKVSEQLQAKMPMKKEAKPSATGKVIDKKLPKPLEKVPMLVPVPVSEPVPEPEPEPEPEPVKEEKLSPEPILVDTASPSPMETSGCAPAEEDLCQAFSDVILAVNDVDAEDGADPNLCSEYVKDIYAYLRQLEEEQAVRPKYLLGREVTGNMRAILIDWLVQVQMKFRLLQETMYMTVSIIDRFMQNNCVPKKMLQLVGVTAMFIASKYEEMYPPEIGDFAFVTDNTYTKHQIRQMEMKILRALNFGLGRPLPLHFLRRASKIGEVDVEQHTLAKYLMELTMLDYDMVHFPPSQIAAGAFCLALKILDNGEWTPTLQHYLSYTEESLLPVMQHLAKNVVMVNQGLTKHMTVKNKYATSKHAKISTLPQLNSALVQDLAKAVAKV
Method: as §1, §3, §18, §4, §5
(§19) 1) Transferred 5 μm of each compound from the 96-well intermediate plate to a 384-well plate. […] A2 of the 96-well plate was transferred to A3 and A4 of the 384-well plate, and so on.
as §9, §10, §11, §12, §13, §14, §15, §16, §17

CDK2/CycA2 = CDK2/CycA2 (Homo sapiens, UniProt P24941); assay: Determination of CDK activity (Caliper mobility shift, FAM-P8 peptide): CDK2; conditions: CDK2/CycA2; read-out: CDK2 enzymatic inhibitory activity (IC50)
Method: as §1, §3, §18, §4, §5, §19, §9, §10, §11, §12, §13, §14, §15, §16, §17

CDK7/CyclinH/MAT1 = CDK7/CyclinH/MAT1 (Homo sapiens, UniProt P50613); assay: Determination of CDK activity (Caliper mobility shift, FAM-P8 peptide): CDK7; conditions: CDK7/CyclinH/MAT1; read-out: CDK7 enzymatic inhibitory activity (IC50)
Sequence of CDK7/CyclinH/MAT1 (P50613 whole entry): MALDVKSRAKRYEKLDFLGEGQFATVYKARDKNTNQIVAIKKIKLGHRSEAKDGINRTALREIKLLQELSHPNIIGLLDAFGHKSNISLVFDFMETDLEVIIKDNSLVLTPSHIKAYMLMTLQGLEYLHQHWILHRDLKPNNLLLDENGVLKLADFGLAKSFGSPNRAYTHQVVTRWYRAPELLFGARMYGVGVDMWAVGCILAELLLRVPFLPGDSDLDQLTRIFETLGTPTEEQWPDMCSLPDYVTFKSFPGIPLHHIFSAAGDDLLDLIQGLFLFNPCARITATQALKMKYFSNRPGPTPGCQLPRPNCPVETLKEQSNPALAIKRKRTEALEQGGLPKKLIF
Sequence of CDK7/CyclinH/MAT1 (P51946 whole entry partner): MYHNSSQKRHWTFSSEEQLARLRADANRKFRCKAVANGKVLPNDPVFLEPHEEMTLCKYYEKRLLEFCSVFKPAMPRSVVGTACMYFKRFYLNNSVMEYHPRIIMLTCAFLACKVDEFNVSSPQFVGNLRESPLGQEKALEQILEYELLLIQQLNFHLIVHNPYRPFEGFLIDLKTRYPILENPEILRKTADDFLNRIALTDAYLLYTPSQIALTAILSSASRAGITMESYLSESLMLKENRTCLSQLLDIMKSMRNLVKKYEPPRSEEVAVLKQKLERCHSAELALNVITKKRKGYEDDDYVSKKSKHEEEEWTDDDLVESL
Sequence of CDK7/CyclinH/MAT1 (P51948 whole entry partner): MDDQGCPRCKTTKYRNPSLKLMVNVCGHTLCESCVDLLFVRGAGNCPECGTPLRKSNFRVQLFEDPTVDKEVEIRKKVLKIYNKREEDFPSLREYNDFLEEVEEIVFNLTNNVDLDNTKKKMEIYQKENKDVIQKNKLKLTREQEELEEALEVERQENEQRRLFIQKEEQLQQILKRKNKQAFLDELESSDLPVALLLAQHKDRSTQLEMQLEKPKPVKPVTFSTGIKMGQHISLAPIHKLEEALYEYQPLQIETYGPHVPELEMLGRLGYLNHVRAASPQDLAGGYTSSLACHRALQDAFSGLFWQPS
Method: as §1, §2, §3
(§20) 3) 1× Kinase Base Buffer (CDK7 and 9).
as §4, §5, §6, §7, §8, §9, §10, §11, §12, §13, §14, §15, §16, §17

CDK9/cyclinTl = CDK9/cyclinTl (Homo sapiens, UniProt P50750); assay: Determination of CDK activity (Caliper mobility shift, FAM-P8 peptide): CDK9; conditions: CDK9/cyclinTl; read-out: CDK9 enzymatic inhibitory activity (IC50)
Sequence of CDK9/cyclinTl (P50750 whole entry): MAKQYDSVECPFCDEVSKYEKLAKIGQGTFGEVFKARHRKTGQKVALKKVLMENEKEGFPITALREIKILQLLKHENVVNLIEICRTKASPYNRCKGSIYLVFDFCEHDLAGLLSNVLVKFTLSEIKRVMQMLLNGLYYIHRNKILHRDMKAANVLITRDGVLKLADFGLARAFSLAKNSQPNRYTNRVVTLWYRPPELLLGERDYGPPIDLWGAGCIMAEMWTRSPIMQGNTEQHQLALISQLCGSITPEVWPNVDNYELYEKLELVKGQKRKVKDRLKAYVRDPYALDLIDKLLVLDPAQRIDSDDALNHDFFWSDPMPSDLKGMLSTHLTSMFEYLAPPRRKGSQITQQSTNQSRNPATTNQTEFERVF
Sequence of CDK9/cyclinTl (O60563 whole entry partner): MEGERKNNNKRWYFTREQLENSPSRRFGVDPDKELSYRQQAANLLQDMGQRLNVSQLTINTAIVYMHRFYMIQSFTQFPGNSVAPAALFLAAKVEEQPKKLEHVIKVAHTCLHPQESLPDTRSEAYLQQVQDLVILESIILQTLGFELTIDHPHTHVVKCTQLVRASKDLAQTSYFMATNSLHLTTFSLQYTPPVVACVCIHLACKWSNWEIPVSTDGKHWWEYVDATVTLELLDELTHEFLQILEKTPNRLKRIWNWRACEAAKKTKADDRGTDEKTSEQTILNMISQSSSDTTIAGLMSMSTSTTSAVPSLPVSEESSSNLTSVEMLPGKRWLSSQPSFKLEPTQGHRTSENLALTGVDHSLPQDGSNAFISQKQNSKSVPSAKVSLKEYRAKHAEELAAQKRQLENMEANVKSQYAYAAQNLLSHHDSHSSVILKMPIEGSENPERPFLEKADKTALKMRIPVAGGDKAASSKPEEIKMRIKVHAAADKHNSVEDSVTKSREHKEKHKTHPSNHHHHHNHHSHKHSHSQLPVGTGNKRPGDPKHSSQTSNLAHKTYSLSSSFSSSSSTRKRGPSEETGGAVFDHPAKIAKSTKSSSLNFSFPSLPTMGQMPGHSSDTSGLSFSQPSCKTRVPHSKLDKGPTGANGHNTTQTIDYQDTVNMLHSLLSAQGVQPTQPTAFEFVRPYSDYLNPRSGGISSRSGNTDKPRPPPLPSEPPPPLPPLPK
Method: as §1, §3, §20, §4, §5, §19, §9, §10, §11, §12, §13, §14, §15, §16, §17

Sequence of CDK4/CycD3 (P11802 whole entry): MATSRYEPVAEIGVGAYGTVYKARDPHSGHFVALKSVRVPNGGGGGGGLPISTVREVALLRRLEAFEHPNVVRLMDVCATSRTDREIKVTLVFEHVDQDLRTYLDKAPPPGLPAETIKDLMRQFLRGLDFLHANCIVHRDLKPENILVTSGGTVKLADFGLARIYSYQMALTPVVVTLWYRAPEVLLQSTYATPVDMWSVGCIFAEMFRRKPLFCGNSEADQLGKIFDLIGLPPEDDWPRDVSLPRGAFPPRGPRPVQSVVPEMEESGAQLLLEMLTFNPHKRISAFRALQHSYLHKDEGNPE
Sequence of CDK4/CycD3 (P30281 whole entry partner): as the sequence (P30281 whole entry partner) above

Row | SMILES | IC50 (CDK4/CycD3) [nM] | IC50 (CDK6/cycD3) [nM] | IC50 (CDK1/CyclinB) [nM] | IC50 (CDK2/CycA2) [nM] | IC50 (CDK7/CyclinH/MAT1) [µM] | IC50 (CDK9/cyclinTl) [nM]
1 | CCN1CCC(=C(C)c2ccc(Nc3ncc(F)c(-c4cc(F)c5nc(C)n(C(C)C)c5c4)n3)nc2)CC1 [Example 58, N-(5-(1-(1-ethylpiperidin-4-ylidene)ethyl)pyridin-2-yl)-5-fluoro-4-(4-fluoro-1-isopropyl-2-methyl-1H-benzo[d]imidazol-6-yl)pyrimidin-2-amine] | < 100 | 100 to 500 | 500 to 1000 | 100 to 500 | 1 to 10 | 100 to 500
2 | Cc1nc2c(F)cc(-c3nc(Nc4ccc(C=C5CCNCC5)cn4)ncc3F)cc2n1C(C)C [Example 59] | < 100 | 500 to 1000 | 500 to 1000 | 100 to 500 | 1 to 10 | 100 to 500
3 | Cc1nc2c(F)cc(-c3nc(Nc4ccc(C=C5CCN(C)CC5)cn4)ncc3F)cc2n1C(C)C [Example 60] | < 100 | 100 to 500 | 500 to 1000 | 100 to 500 | 1 to 10 | 100 to 500
4 | CC(=C1CCNCC1)c1ccc(Nc2ncc(F)c(-c3cc(F)c4nc(C)n(C(C)C)c4c3)n2)nc1 [Example 61] | < 100 | 500 to 1000 | 500 to 1000 | 100 to 500 | 1 to 10 | 100 to 500
5 | CC(=C1CCN(C)CC1)c1ccc(Nc2ncc(F)c(-c3cc(F)c4nc(C)n(C(C)C)c4c3)n2)nc1 [Example 62] | < 100 | 500 to 1000 | 500 to 1000 | 100 to 500 | 1 to 10 | 500 to 1000
6 | Cc1nc2c(F)cc(-c3nc(Nc4ccc(C=C5CCN(C(C)C)CC5)cn4)ncc3F)cc2n1C(C)C [Example 64] | < 100 | 100 to 500 | 1000 to 10000 | 100 to 500 | 10 to 100 | 100 to 500
7 | Cc1nc2c(F)cc(-c3nc(Nc4ccc(C=C5CCN(C6CC6)CC5)cn4)ncc3F)cc2n1C(C)C [Example 66] | < 100 | < 100 | 100 to 500 | < 100 | 1 to 10 | 100 to 500
8 | Cc1nc2c(F)cc(-c3nc(Nc4ccc(C=C5CCN(CCO)CC5)cn4)ncc3F)cc2n1C(C)C [Example 67] | < 100 | < 100 | 100 to 500 | < 100 | 1 to 10 | 100 to 500
9 | COCCN1CCC(=Cc2ccc(Nc3ncc(F)c(-c4cc(F)c5nc(C)n(C(C)C)c5c4)n3)nc2)CC1 [Example 68] | < 100 | < 100 | 100 to 500 | < 100 | 1 to 10 | 100 to 500
10 | Cc1nc2c(F)cc(-c3nc(Nc4ccc(C=C5CCN(CC(F)F)CC5)cn4)ncc3F)cc2n1C(C)C [Example 69] | < 100 | < 100 | 100 to 500 | < 100 | 1 to 10 | 100 to 500
11 | Cc1nc2c(F)cc(-c3nc(Nc4ccc(C=C5CCN(CC(F)(F)F)CC5)cn4)ncc3F)cc2n1C(C)C [Example 70] | < 100 | < 100 | 100 to 500 | < 100 | 1 to 10 | 100 to 500
12 | Cc1nc2c(F)cc(-c3nc(Nc4ccc([C@H](C)C5CCN(C6CC6)CC5)cn4)ncc3F)cc2n1C(C)C [Example 75] | < 100 | < 100 | 100 to 500 | < 100 | 1 to 10 | 100 to 500
13 | Cc1nc2c(F)cc(-c3nc(Nc4ccc([C@@H](C)C5CCN(C6CC6)CC5)cn4)ncc3F)cc2n1C(C)C [Example 76] | < 100 | 100 to 500 | 500 to 1000 | 100 to 500 | 1 to 10 | 100 to 500
14 | Cc1nc2c(F)cc(-c3nc(Nc4ccc([C@H](C)C5CCN(CCO)CC5)cn4)ncc3F)cc2n1C(C)C [Example 77] | < 100 | < 100 | 100 to 500 | < 100 | 1 to 10 | 100 to 500
15 | COCCCN1CCC([C@@H](C)c2ccc(Nc3ncc(F)c(-c4cc(F)c5nc(C)n(C(C)C)c5c4)n3)nc2)CC1 [Example 81] | < 100 | < 100 | 100 to 500 | < 100 | 1 to 10 | 100 to 500
16 | Cc1nc2c(F)cc(-c3nc(Nc4ccc([C@H](C)C5CCN(CC(F)F)CC5)cn4)ncc3F)cc2n1C(C)C [Example 83] | < 100 | < 100 | 100 to 500 | < 100 | 1 to 10 | 100 to 500
17 | Cc1nc2c(F)cc(-c3nc(Nc4ccc([C@H](C)C5CCN(CC(F)(F)F)CC5)cn4)ncc3F)cc2n1C(C)C [Example 85] | < 100 | < 100 | 100 to 500 | < 100 | 1 to 10 | 100 to 500
18 | Cc1nc2c(F)cc(-c3nc(Nc4ccc([C@@H](C)C5CCN(CC(F)(F)F)CC5)cn4)ncc3F)cc2n1C(C)C [Example 86] | < 100 | 100 to 500 | 500 to 1000 | 100 to 500 | 1 to 10 | 100 to 500
